Experimental data as given in publication PMC11881035, “^68Ga-Labeled Glycopeptides as Effective Tools for Liver Function Imaging” (Molecular Pharmaceutics, 2025).
Where a SMILES comes first, the peptide text is derived from it. The star is where a group is joined. X1 = O=C(CCCCc1cn([C@@H]2O[C@H](CO)[C@H](O)[C@H](O)[C@H]2O)nn1)*; NODAGA = O=C(O)CN1CCN(CC(=O)O)CCN(C(CCC(=O)*)C(=O)O)CC1; GABA = NCCCC(=O)O

System: healthy male C57BL6 mouse
Assay: PET/MR imaging in C57BL6 mice, time activity curves
Format: in vivo
Procedure: The ^68Ge/^68Ga generator, devices for analytical HPLC, semipreparative HPLC, mass spectrometry, radio-thin layer chromatography, gamma counter and animal models for biodistribution and imaging studies including the image reconstruction procedures were the same as described before.[22] Stability assays in PBS and human blood serum, protein binding as well as determination of log D values followed established protocols.[25] Binding affinities (IC50) of selected ligands were determined in an isolated receptor-based assay according to a previously published procedure with minor modifications.[22] Dilutions of nonradioactive complexes were made with PBS + 0.1% BSA (10^–5–10^–12 M). Preparation of [^125I]I-Asialoorosomucoid which serves as the radioactive standard ligand has been published recently.[21]
Animal experiments were performed in accordance with the Austrian animal experiments law (BGBl. I Nr. 114/2012) and the institution’s animal welfare standards as approved by the Austrian Federal Ministry of Education, Science and Research (BMBWF, 2022–0.311.708). Imaging experiments were conducted at Werner Siemens Imaging Center (Tübingen, Germany) according to the German animal welfare act as approved by the local authorities (R5/19 G, R09/21 G). […]

NC(=O)CNC(=O)CNC(=O)[C@H](CCCCNC(=O)CCCCc1cn([C@@H]2O[C@H](CO)[C@H](O)[C@H](O)[C@H]2O)nn1)NC(=O)CNC(=O)CNC(=O)[C@H](CCCCNC(=O)CCCCc1cn([C@@H]2O[C@H](CO)[C@H](O)[C@H](O)[C@H]2O)nn1)NC(=O)CNC(=O)CNC(=O)[C@H](CCCCNC(=O)CCCCc1cn([C@@H]2O[C@H](CO)[C@H](O)[C@H](O)[C@H]2O)nn1)NC(=O)CNC(=O)CNC(=O)[C@H](CCCCNC(=O)CCCCc1cn([C@@H]2O[C@H](CO)[C@H](O)[C@H](O)[C@H]2O)nn1)NC(=O)CNC(=O)CNC(=O)[C@H](CCCCNC(=O)CCCCc1cn([C@@H]2O[C@H](CO)[C@H](O)[C@H](O)[C@H]2O)nn1)NC(=O)CNC(=O)CNC(=O)[C@H](CCCCNC(=O)CCCCc1cn([C@@H]2O[C@H](CO)[C@H](O)[C@H](O)[C@H]2O)nn1)NC(=O)CNC(=O)CNC(=O)[C@H](CCCCNC(=O)CCCCc1cn([C@@H]2O[C@H](CO)[C@H](O)[C@H](O)[C@H]2O)nn1)NC(=O)CNC(=O)CNC(=O)[C@H](CCCCNC(=O)CCCCc1cn([C@@H]2O[C@H](CO)[C@H](O)[C@H](O)[C@H]2O)nn1)NC(=O)CNC(=O)CNC(=O)[C@H](CCCCNC(=O)CCCCc1cn([C@@H]2O[C@H](CO)[C@H](O)[C@H](O)[C@H]2O)nn1)NC(=O)CCCNC(=O)CCC(C(=O)O)N1CCN(CC(=O)O)CCN(CC(=O)O)CC1 (some centres unmarked) [[^68Ga]Ga-NODAGA-NonaLysan, metal not drawn] ({NODAGA-GABA}-K(X1)GGK(X1)GGK(X1)GGK(X1)GGK(X1)GGK(X1)GGK(X1)GGK(X1)GGK(X1)GG-NH2)
time of fast liver accumulation (PET/MR, C57BL6 mouse, 1 MBq (100 pmol)): ≤ 2 min
time of rapid tracer accumulation in liver (time-activity curves) (followed by stable retention): ≤ 5 min
